Test results taken from US12686668B2, “Leukotriene synthesis inhibitors” (Naegis Pharmaceuticals Inc., priority 2019, dated 2026).

Assays:
[1] = Solubilized concentration of compound in eye drop formulation (HPLC); assay type: physicochemical; conditions: eye drop formulation: 20% hydroxypropyl β-cyclodextrin, 0.5% HPMC, 1.6 mM EDTA in PBS
Description: (§1) Eye drops were prepared by adding compounds at a theoretical concentration of 10 mg/mL to a 2 mL microcentrifuge tube before adding a stir bar and the selected formulation that consisted of (w/v) hydroxypropyl β-cyclodextrin (Trappsol) (20%), hydroxyl propyl methylcellulose (0.5%) and EDTA (1.6 mM) in phosphate buffered saline. Tubes containing compound in eye drop formulation were heated to 60-65° C. and stirred at least 4 hours to overnight. The tubes were removed from the heat bath and centrifuged at 10,000 ref for 5 minutes to clear the solution of any residual drug not in solution. The supernatant was removed from the tubes and one 10 μL sample was removed for HPLC analysis of solubilized by HPLC using an ACE C18 column (4.5 mm×150 mm, 5 m), eluted with acetonitrile/methanol/water mixture with H3PO4, pH 3.5 (50:30:20) with a flow rate of 2.5 mL/min. The solubilized concentration of each compound was calculated by interpolation from a standard curve based on reference standards solubilized in methanol when the assay was validated.
In Table 6, the data from distribution studies performed in Lewis rats show the concentration of each compound present in the retina 0.5 hr after the administration of a 10 μL drop of each topical formation is provided. Compounds were paired and individual formulations mixed at a ratio to make a mixture that contained ~2.5 mg/mL of each compound.

[2] = Rat ocular distribution model, retina after topical drop; assay type: in vivo; conditions: Lewis rats, 10 μL topical drop
Description: as §1
Compounds were applied as a single 10 μL drop to rats and the aqueous humor, and the posterior segment of the eye (vitreous body and retina) were collected from each eye at the time point assigned after the eye was irrigated to remove any residual formulation present. Tissues were collected in pre-weighed collection tubes and the tissue weight was determined for each sample. An internal standard (IS) mixture containing a reference compound at a ratio of 1 μL to 4 mg tissue was added to samples, mixed and then diluted×4.25 in acetonitrile:methanol (9:1). Aqueous humour samples were vortex mixed for 10 s. The vitreous body & retina were vortex mixed 2 times each for 10 s, and further mixed for 6 min on a tabletop shaker at 750 rpm followed by final vortex mixing (10 s). All samples were centrifuged to pellet any particulate matter and the supernatant was transferred to LC vials. A 10 μL sample was then applied to the HPLC during LC/MS/MS analysis. A calibration curve for compounds (0.588-176.471 ng/mL) was prepared in rat plasma to estimate concentrations of compounds in each of the matrices analyzed using the area under curve (AUC) normalized to internal standard AUC for determining response. The assumption was made that 1 mg tissue is equivalent to 1 μL plasma. Concentrations measured in each tissue were then normalized to the amount of drug applied to account for differences in solubilized drug in each formulation. The average concentration and the standard deviation was determined based on “n”=number of eyes assessed, rather than the number of animals. […]

Concentration of compound in formulation [1]: 2860 µg/mL
Compound: CCC(O)(CCc1ccc(Oc2nc3c(SC)cccc3s2)c(OC)c1)C(F)(F)F (centres unmarked) [Compound 104, 1-{3-methoxy-4-[(4-methylsulfanyl-1,3-benzothiazol-2-yl)oxy]phenyl}-3-(trifluoromethyl)pentan-3-ol]
Concentration of compound in retina 0.5 hr after administration per mg compound applied (Avg ± SD) n = 2 [2]: 3340 ± 1061 ng/mL per mg compound applied
